In PubChem BioAssay AID248 (DTP/NCI, 2004):
“And” between values parts separate entries of the source, which are not always exact repeats. Equal entries are not always repeated. Inconclusive results and toxic doses are left out. Rule as the data show it: active = T/C of 150% or more; inactive = T/C below 125%.

System: L1210 leukemia ip in BDF1 mice, survival T/C
Assay: NCI In Vivo Anticancer Drug Screen. Data for tumor model L1210 Leukemia (intraperitoneal) in B6D2F1 (BDF1) mice
Details: endpoint: mean survival time, higher = longer survival
How it was run: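 Tumor was transplanted into mice, which were then dosed with test compound or vehicle alone. Survival was recorded for each group, and the treated figure was expressed relative to the control figure.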

[1] = dose: 100.0 mg/kg/injection, schedule: Q01DX009 (ip), vehicle: saline with Tween-80
[2] = dose: 200.0 mg/kg/injection, schedule: Q01DX009 (ip), vehicle: saline with Tween-80
[3] = dose: 100.0 mg/kg/injection, schedule: Q01DX001 (ip), vehicle: saline with Tween-80
[4] = dose: 100.0 mg/kg/injection, schedule: Q04DX002 (ip), vehicle: saline with Tween-80
[5] = dose: 200.0 mg/kg/injection, schedule: Q01DX001 (ip), vehicle: saline with Tween-80
[6] = dose: 200.0 mg/kg/injection, schedule: Q04DX002 (ip), vehicle: saline with Tween-80
[7] = dose: 200.0 mg/kg/injection, schedule: Q04DX003 (ip), vehicle: saline with Tween-80
[8] = dose: 400.0 mg/kg/injection, schedule: Q01DX001 (ip), vehicle: saline with Tween-80
[9] = dose: 400.0 mg/kg/injection, schedule: Q04DX002 (ip), vehicle: saline with Tween-80
[10] = dose: 400.0 mg/kg/injection, schedule: Q04DX003 (ip), vehicle: saline with Tween-80
[11] = dose: 50.0 mg/kg/injection, schedule: Q04DX003 (ip), vehicle: Klucel (hydroxypropylcellulose) (HPC)
[12] = dose: 100.0 mg/kg/injection, schedule: Q01DX009 (ip), vehicle: Klucel (hydroxypropylcellulose) (HPC)
[13] = dose: 200.0 mg/kg/injection, schedule: Q01DX009 (ip), vehicle: Klucel (hydroxypropylcellulose) (HPC)
[14] = dose: 100.0 mg/kg/injection, schedule: Q01DX001 (ip), vehicle: Klucel (hydroxypropylcellulose) (HPC)
[15] = dose: 200.0 mg/kg/injection, schedule: Q01DX001 (ip), vehicle: Klucel (hydroxypropylcellulose) (HPC)
[16] = dose: 400.0 mg/kg/injection, schedule: Q01DX001 (ip), vehicle: Klucel (hydroxypropylcellulose) (HPC)
[17] = dose: 100.0 mg/kg/injection, schedule: Q04DX002 (ip), vehicle: Klucel (hydroxypropylcellulose) (HPC)
[18] = dose: 200.0 mg/kg/injection, schedule: Q04DX002 (ip), vehicle: Klucel (hydroxypropylcellulose) (HPC)
[19] = dose: 400.0 mg/kg/injection, schedule: Q04DX002 (ip), vehicle: Klucel (hydroxypropylcellulose) (HPC)
[20] = dose: 100.0 mg/kg/injection, schedule: Q01DX001 (ip), vehicle: saline
[21] = dose: 200.0 mg/kg/injection, schedule: Q01DX001 (ip), vehicle: saline
[22] = dose: 400.0 mg/kg/injection, schedule: Q01DX001 (ip), vehicle: saline
[23] = dose: 100.0 mg/kg/injection, schedule: Q04DX003 (ip), vehicle: Klucel (hydroxypropylcellulose) (HPC)
[24] = dose: 200.0 mg/kg/injection, schedule: Q04DX003 (ip), vehicle: Klucel (hydroxypropylcellulose) (HPC)
[25] = dose: 100.0 mg/kg/injection, schedule: Q01DX001 (ip), vehicle: carboxymethylcellulose (CMC)
[26] = dose: 200.0 mg/kg/injection, schedule: Q01DX001 (ip), vehicle: carboxymethylcellulose (CMC)
[27] = dose: 400.0 mg/kg/injection, schedule: Q01DX001 (ip), vehicle: carboxymethylcellulose (CMC)

Measured: T/C

CC(C)C(CN)(CCCN1CCOCC1)c1cccc2ccccc12 (configuration not stated)
inactive: [1] 94 % of control | [2] 89 % of control

CC(=O)CC(=O)Nc1nc(C)cs1
inactive: dose: 75.0 mg/kg/injection, schedule: Q01DX001 (ip), vehicle: Klucel (hydroxypropylcellulose) (HPC) 100 % of control | dose: 150.0 mg/kg/injection, schedule: Q01DX001 (ip), vehicle: Klucel (hydroxypropylcellulose) (HPC) 100 % of control | dose: 300.0 mg/kg/injection, schedule: Q01DX001 (ip), vehicle: Klucel (hydroxypropylcellulose) (HPC) 95 % of control

CSc1ccc(NC(=O)Oc2ccccn2)cc1
inactive: [3] 89 % of control | [1] 97 % of control | [4] 93 % of control and 94 % of control | [5] 103 % of control | [2] 90 % of control | [6] 96 % of control and 114 % of control | [7] 88 % of control | [8] 105 % of control | [9] 95 % of control and 96 % of control | [10] 97 % of control

CCOC(=O)C1(C(=O)OCC)CCC2Nc3cc4c(cc3C(=O)N21)OCO4 (configuration not stated)
inactive: dose: 12.5 mg/kg/injection, schedule: Q04DX003 (ip), vehicle: Klucel (hydroxypropylcellulose) (HPC) 99 % of control | dose: 25.0 mg/kg/injection, schedule: Q04DX003 (ip), vehicle: Klucel (hydroxypropylcellulose) (HPC) 100 % of control | [11] 96 % of control

CCCSc1ccc2c3c(cccc13)C(=O)OC2=O
inactive: [12] 101 % of control | [13] 98 % of control

CO[N+](=O)c1cc(C(C)(C)C)c([O-])c(C(C)(C)C)c1
inactive: [14] 88 % of control | [15] 88 % of control | [16] 92 % of control

CCN(CC)C(=S)Oc1c(C(C)(C)C)cc([N+](=O)[O-])c(C)c1[N+](=O)[O-]
inactive: [17] 90 % of control | [18] 100 % of control | [19] 97 % of control

CCc1c(Nc2ccccc2C)nc(N)[nH]c1=O
inactive: dose: 100.0 mg/kg/injection, schedule: Q01DX Z (ip), vehicle: methylcellulose (MC) 100 % of control | dose: 200.0 mg/kg/injection, schedule: Q01DX Z (ip), vehicle: methylcellulose (MC) 104 % of control

Cc1cccc(NC(=O)N(O)C2(C#N)CCCCC2)c1
inactive: [20] 93 % of control | [21] 96 % of control | [22] 98 % of control

C=C(COC(C)(C)C)CN(C)C
inactive: [20] 94 % of control | [21] 93 % of control

CC(=O)CC(=O)CC(=O)c1ccccc1
inactive: [11] 108 % of control | [14] 97 % of control | [23] 96 % of control | [15] 93 % of control | [24] 105 % of control | [16] 102 % of control

CC1(c2ccc3ccccc3c2)OCC2(CCC2)CO1
inactive: [17] 97 % of control | [19] 107 % of control

CCCCC(CC)(CCC)CCN (configuration not stated)
inactive: dose: 5.0 mg/kg/injection, schedule: Q01DX001 (ip), vehicle: carboxymethylcellulose (CMC) 100 % of control | dose: 10.0 mg/kg/injection, schedule: Q01DX001 (ip), vehicle: carboxymethylcellulose (CMC) 110 % of control | dose: 20.0 mg/kg/injection, schedule: Q01DX001 (ip), vehicle: carboxymethylcellulose (CMC) 100 % of control

CCN(C(=O)c1ccc([N+](=O)[O-])cc1)C(c1ccco1)P(=O)(c1ccccc1)c1ccccc1 (configuration not stated)
inactive: [4] 87 % of control | [6] 87 % of control | [9] 93 % of control

COCC(C)CNC(=S)Nc1ccccc1 (configuration not stated)
inactive: dose: 50.0 mg/kg/injection, schedule: Q01DX001 (ip), vehicle: carboxymethylcellulose (CMC) 108 % of control | [25] 103 % of control | [26] 103 % of control | [27] 105 % of control

COC(=O)c1ccccc1NC(=O)Nc1ccc(F)cc1
inactive: [12] 90 % of control | [13] 90 % of control | dose: 400.0 mg/kg/injection, schedule: Q01DX009 (ip), vehicle: Klucel (hydroxypropylcellulose) (HPC) 90 % of control

CC1(c2ccccc2)OC(=O)c2c1ccc1ccccc21 (configuration not stated)
inactive: [3] 94 % of control | [5] 95 % of control | [8] 90 % of control

CC(C(=O)c1ccccc1)c1ccccc1 (configuration not stated)
inactive: dose: 50.0 mg/kg/injection, schedule: Q01DX009 (ip), vehicle: saline with Tween-80 97 % of control | [1] 87 % of control | [17] 106 % of control | [4] 90 % of control | [2] 87 % of control | [18] 91 % of control | [6] 107 % of control | [19] 98 % of control | [9] 101 % of control

COc1c(Br)c(-c2ccccc2)nc2ccccc12
inactive: [20] 100 % of control | [21] 88 % of control | [22] 92 % of control

N#CCCOC(=O)CCC(=O)OCCC#N
inactive: dose: 100.0 mg/kg/injection, schedule: Q01DX001 (ip), vehicle: other 104 % of control | dose: 200.0 mg/kg/injection, schedule: Q01DX001 (ip), vehicle: other 100 % of control | dose: 400.0 mg/kg/injection, schedule: Q01DX001 (ip), vehicle: other 102 % of control

COC(=O)c1cc(Cl)ccc1OCC(=O)NCc1ccc(Cl)cc1
inactive: dose: 100.0 mg/kg/injection, schedule: Q04DX003 (ip), vehicle: saline with Tween-80 89 % of control | [7] 102 % of control | [10] 88 % of control

COc1ccc(OCC(=O)N2CCCC2)cc1
inactive: [17] 103 % of control | [18] 96 % of control | [19] 96 % of control

O=C1C(Cc2ccccc2)C(=O)N(Cc2ccccc2)C(=O)N1Cc1ccccc1
inactive: [25] 88 % of control | [26] 90 % of control | [27] 88 % of control

CCSCC1OC(n2cnc3c(N)nc(Cl)nc32)C(O)C1O (configuration not stated)
inactive: dose: 12.5 mg/kg/injection, schedule: Q01DX001 (ip), vehicle: saline with Tween-80 100 % of control | dose: 25.0 mg/kg/injection, schedule: Q01DX001 (ip), vehicle: saline with Tween-80 100 % of control | dose: 50.0 mg/kg/injection, schedule: Q01DX001 (ip), vehicle: saline with Tween-80 102 % of control

C=CCN(CC=C)c1nn[nH]n1
inactive: [23] 92 % of control | [24] 88 % of control | dose: 400.0 mg/kg/injection, schedule: Q04DX003 (ip), vehicle: Klucel (hydroxypropylcellulose) (HPC) 88 % of control

Clc1ccc(/C=N/N2CCN(/N=C/c3ccc(Cl)cc3)CC2)cc1
inactive: [25] 96 % of control | [26] 96 % of control | [27] 96 % of control

C[N+](C)(C)c1ccc(/C=C2\C=Cc3ccccc32)cc1
inactive: dose: 15.0 mg/kg/injection, schedule: Q01DX001 (ip), vehicle: carboxymethylcellulose (CMC) 108 % of control | dose: 30.0 mg/kg/injection, schedule: Q01DX001 (ip), vehicle: carboxymethylcellulose (CMC) 102 % of control
